Laboratory results taken from paper PMC3758437 (Kidney international, 2013).
Counter-ions that a name gives are not always drawn. Like-named read-outs stand apart in the source and are kept apart here.

Legend:
[1] = tested on: plasma proteins; format: in vitro ADME; settings: human, plasma (ultrafiltration)
[2] = normal subjects; LC/MS/MS assay; mean±sd
[3] = tested on: plasma proteins; test: Free fraction by stable isotope dilution LC/MS/MS assay; settings: human, plasma (ultrafiltration)

| Structure (SMILES) | fraction unbound [1] | Plasma Free Concentration [2] | fraction unbound [3] |
| --- | --- | --- | --- |
| Cn1c(=O)c2c([nH]c(=O)n2C)n(C)c1=O [1,3,7-Trimethyluric acid] | 0.09 ± 0.03 | – | – |
| Cn1c(=O)[nH]c2[nH]c(=O)n(C)c2c1=O [1,7-Dimethyluric acid] | 0.39 ± 0.3 | – | – |
| CN1CC(=O)NC1=N [Creatinine] | – | 74 ± 13 µM | – |
| O=S(=O)(O)Oc1c[nH]c2ccccc12 [Indoxyl sulfate] | 0.02 ± 0.01 | 0.13 ± 0.05 µM | 0.027 ± 0.004 |
| Cc1ccc(OS(=O)(=O)O)cc1 [p-Cresol sulfate] | – | 0.46 ± 0.26 µM | – |

Continued, values first:

| fraction unbound [1] | Plasma Free Concentration [2] | fraction unbound [3] | Structure (SMILES) |
| --- | --- | --- | --- |
| 0.49 | – | – | O=C(O)CNC(=O)c1ccco1 [2-Furoylglycine] |
| 0.04 ± 0.01 | – | – | O=C(O)CCCCC(=O)O [Adipic acid] |
| 0.27 ± 0.05 | 1.5 ± 0.9 µM | 0.41 ± 0.02 | O=C(O)CNC(=O)c1ccccc1 [Hippurate] |
| 0.11 ± 0.04 | – | – | CC(CC(=O)O)C(=O)O (stereo not drawn) [Methylsuccinic acid] |
| 0.07 ± 0.02 | – | – | O=C(O)CCCCCCC(=O)O [Suberic acid] |
| – | 2.4 ± 0.6×10^3 μM | – | NC(N)=O [Urea] |
